Test results published in patent publication US10005733B2, “N-(4-hydroxy-4-methyl-cyclohexyl)-4-phenyl-benzenesulfonamide and N-(4-hydroxy-4-methyl-cyclohexyl)-4-(2-pyridyl)-benzenesulfonamide compounds and their therapeutic use” (PIMCO 2664 LIMITED, priority 2014, dated 2018).

Assays:
[1] = system: J774 macrophages; assay: Resazurin Macrophage J774 Viability Assay; format: cell-based; settings: Mus musculus, J774, 72 h; footnote (1): 10 point range 30 μM to 1.5 nM, n = 3 per concentration, Grafit; 72 hour incubation
Method: Potency was assessed using a viability assay based on the survival of the J774 macrophage cell line. Macrophages are closely related to osteoclasts and have been used previously as a model system for osteoclast survival (see, e.g., Luckman et al., 1998, “Heterocycle-containing bisphosphonates cause apoptosis and inhibit bone resorption by preventing protein prenylation: evidence from structure-activity relationships in J774 macrophages,” J. Bone Miner. Res., Vol. 13, pp. 1668-1678). The model is indicative both of effects on bone protection in diseases such as osteoporosis, osteoarthritis and rheumatoid arthritis, and of effects on inflammation since, like osteoclasts, J774 macrophages are dependent for survival on continued NFκB activation.
In vitro potency of test compounds was determined by incubation with J774 macrophages and subsequent determination of cell viability using resazurin.
Resazurin is a redox dye commonly used as an indicator of viability in cultured cells (see, e.g., Anoopkumar-Dukie, 2005, “Resazurin assay of radiation response in cultured cells”, British Journal of Radiology, Vol. 78, pp. 945-947). It is non-toxic to cells and stable in culture medium, allowing continuous measurement of cell proliferation in vitro as either a kinetic or endpoint assay. The assay is based on the ability of viable, metabolically-active cells to reduce resazurin (which is blue and non-fluorescent) to resorufin and dihydroresorufin (which are red and fluorescent) using electrons from reducing species, such as nicotinamide […] and flavin adenine dinucleotide (FADH). This transformation, from oxidised form to reduced form, can be measured either colorimetrically or fluorometrically. Insults that impair cell viability and proliferation also affects the capacity of cells to reduce resazurin, and the rate of dye reduction is directly proportional to the number of viable cells present.
For fluorescence measurements, 530-560 nm excitation and 590 nm emission wavelengths are typically used. For colorimetric measurements, absorbance at 570 nm (reduced form) and 600 nm (oxidised form) is typically measured. A simple calculation is performed to determine the relative quantities of the two species: a high ratio of resorufin (the reduced form) to resazurin (the oxidised form) is an indicator that cells are proliferating and viable. A low ratio indicates cells that are quiescent or non-viable.
J774 cells were plated at 10^4 cells per well in 100 μL αMEM (α Modified Eagle Medium) in 96-well plates and allowed to adhere overnight. The following day, test compounds were prepared as 100 mM solutions in DMSO. These stock solutions were diluted in DMSO and then diluted 1000× in culture medium (αMEM) before being added directly to the wells so as to give the desired final compound concentration. After a 72 hour incubation at 37° C./5% CO2, resazurin (Alamar Blue, Biosource International) was added to each well (1:10 v/v, 10 μL). The plate was then incubated at 37° C. for 3 hours and fluorescence was measured at 590 nm, with a 25 nm bandwidth.
The average results for each test compound were expressed as a percent (%) of the average control value reflecting cell viability. The average values across the concentrations tested were then plotted and an IC50 was calculated by fitting the data to a 4-parameter IC50 equation using either Graph Pad Prism software for Windows (Graph Pad Software, San Diego Calif. USA) or Grafit version 5 (Erithacus Software). Each experiment was repeated twice and the data are presented as the mean IC50 from both experiments.

[2] = Rodent Pharmacokinetics Studies; format: in vivo, rat; settings: male Han Wistar rats; for i.v. AUC: 1 mg/kg intravenous, 5% DMSO/10% solutol in saline; for bioavailability: rat, plasma, 5 mg/kg, oral in 0.5% CMC/0.1% Tween-80, i.v. in 5% DMSO/10% solutol in saline, read-out: Bioavail, F (%)
Method: Absorption and metabolic stability were studied using an in vivo pharmacokinetics assay.
[…] […] For compound HMC-C-01-A the oral administration was formulated in 2% dimethylacetamide/20% hydroxypropyl-β-cyclodextrin in water. Animals were given free access to food throughout the study except for fasting overnight and until 2 hours post dose on the day of dosing.
Blood samples were taken from the retro-orbital plexus at the following time points and placed in microtubes containing 20% K2EDTA solution: […]
Blood samples were centrifuged to obtain plasma, which was transferred to a separate container and frozen at −20° C.
For analysis, samples were thawed at room temperature and prepared by protein precipitation with acetonitrile spiked with internal standard (500 ng/mL glipizide) in the ratio 1:4 with plasma. The samples were then vortexed for 5 minutes and centrifuged for 10 minutes at 20,600×g at 4° C. 100 μL of the supernatant was collected for analysis.
The pharmacokinetic parameters for the test compounds were calculated by Phoenix WinNonlin version 6.3 (Pharsight Corp, CA) using standard non-compartmental methods. Peak plasma concentrations (Cmax) and time of the peak plasma concentration (Tmax) were the observed values. The area under the plasma concentration-time curve (AUC) was determined by use of the linear trapezoidal rule up to the last measurable concentration (AUClast) and thereafter by extrapolation of the terminal elimination phase to infinity (AUCinf). The terminal elimination rate constant (kel) was determined by regression analysis of the linear terminal portion of the log plasma concentration-time curve. The elimination phase half-life (t1/2) was calculated as 0.693/kel.

[3] = system: human primary osteoclasts; assay: Human Primary Osteoclastogenesis (TRAP-positive multinucleated cells from CD14+ monocytes); format: cell-based; settings: 1 μM; compound added on Day 4 of monocyte differentiation
Method: In vitro potency of test compounds was determined by incubating them with human primary monocytes and assessing effects on the formation of mature osteoclasts.
The activity of the compounds in reducing the formation of human primary osteoclasts (osteoclastogenesis) was tested using monocytes derived from human whole blood. Monocytes, which are positive for the cell surface marker CD14, are part of the innate immune system found in the circulation. Peripheral blood monocytes differentiate to form several cell types, including osteoclasts. Human primary osteoclasts were […] macrophage colony-stimulating factor (M-CSF) and RANKL+10% foetal calf serum for approximately 6 days, with the exact duration depending on the individual donor of the cells.
When monocytes are cultured under the conditions described above, they form large, multinucleated cells (osteoclasts), which stain positively for tartrate-resistant acid phosphatase (TRAP). TRAP staining was performed between Days 5-6 of culture depending on the individual donor. Osteoclasts are identified as cells which stain positive for TRAP and contain more than 3 nuclei. Compounds which reduce the number of TRAP-positive cells reduce the formation of osteoclasts. The bisphosphonate compound, alendronate, which is used in the treatment of osteoporosis, is used as a positive control for reducing osteoclastogenesis in this assay.
Effects on osteoclast formation were assessed by staining for TRAP and counting cells containing more than three nuclei in each well under a microscope. This allows the absolute determination of cell number in each treated well.
PBMCs (peripheral blood mononuclear cells) were collected from healthy donors and isolated by centrifugation on a layer of Ficoll Paque (GE Healthcare, UK). Monocytes were then sorted from the PBMCs using an autoMACS Pro Separator (MiltenyiBiotec), which sorts cells depending on the markers present on their cell surface. The resulting CD14+ monocytes were resuspended in αMEM supplemented with 10% FCS, 25 ng/mL M-CSF and 100 ng/ml RANKL and added to a 48-well plate, which was then incubated for up to 6 days at 37° C./5% CO2. […] The medium was replenished every 2 days.
At the end of the culture period, the medium was removed from the cells and the cells were fixed at room temperature and then washed with phosphate-buffered saline. TRAP staining solution was then added and the cells incubated at 37° C. until a red colour had developed, after which the reaction was stopped by rinsing with water. The stained cells were air-dried and then photographed using a conventional microscope and the TRAP-positive multinucleated osteoclasts counted by two independent observers.
The average results (n=6) for each concentration of test compound were averaged between the two observers and then expressed as a fold change versus the average control value. The data were then plotted graphically using software from Grafit (Erithacus Software).

[4] = 5 mg/kg orally, 0.5% CMC/0.1% Tween-80

Compound | IC50 [1] [nM] | i.v. AUC [2] [ng/mL/min] | p.o. AUC (ng/mL/min) [2, 4] | bioavailability [2] [%] | p.o. AUC [2, 4] [ng/mL/min] | % reduction at 1 μM [3] [%]
Cc1cc(S(=O)(=O)NC2CCC(C)(O)CC2)ccc1-c1ccc(F)cc1F (single isomer, unassigned) [REF001, reference compound] | 50 | 963 | 4766 ^(4) ng/mL/min | 50 | – | –
O=S(=O)(N[C@H]1CC[C@H](O)CC1)c1ccc(-c2ncc(Cl)cc2Cl)cc1 [ABD836, reference compound] | 1450 | 2142 | – | 55 | 5927 | –
NCCCC(O)(P(=O)(O)O)P(=O)(O)O [Alendronate, alendronate] | – | – | – | – | – | 12
